Literature values, collected in US20040082521A1, “Novel formulations of digitalis glycosides for treating cell-proliferative and other diseases” (Azaya Therapeutics Inc., priority 2002, published 2004).

Key:
[1] = tested on: androgen-independent human prostate cancer cell lines; details: for apoptosis: in vitro
[2] = tested on: FGF-2 release from DU145 cells; details: 0.1 ng/mL
[3] = tested on: FGF-2 release from PC3 cells; details: 0.1 ng/mL
[4] = tested on: various cancer cell lines
[5] = tested on: human malignant cell lines; details: for growth and apoptosis: non-toxic concentrations

For `CO[C@H]1C[C@H](O[C@H]2CC[C@@]3(C)[C@H](CC[C@@H]4[C@@H]3CC[C@]3(C)[C@@H](C5=CC(=O)OC5)[C@@H](OC(C)=O)C[C@]43O)C2)O[C@@H](C)[C@@H]1O` [Oleandrin, 16b-acetoxy-3b-[(2,6-dideoxy-3-0-methyl-a2-L-arabino-hexopyranosyl)oxy]14-hydroxy-5β, 14β-card-20(22)-enolide], the “AP-1 activation induced by TNF and other agents” value (AP-1) is given as “blocked”, the “TNF-induced activation of NF-κB” value (NF-κB; TNF-induced) is given as “blocked” and the “NF-κB activation induced by phorbol ester and lipopolysaccharide” value (NF-κB; phorbol ester and lipopolysaccharide) is given as “blocked”. The “NF-κB-dependent reporter gene transcription activated by TNF” value (NF-κB; reporter gene) was “suppressed”, the caspase activation ([1]; cleavage of poly (ADP-ribose) polymerase, hydrolysis of DEVD-pNA) was “promoted caspase activation” and the apoptosis [1] was “induce apoptosis”. The “elimination from the body” value (in vivo) was “one to two”, the “distribution in the body” value (when ingested) was “widely distributed in the body” and the cell-killing potency (human cancer cells; comparison Oleandrin vs water extract) was “greater than that of the water extract”. The cell killing (human cancer cells; human cancer cells) was “able to induce cell killing”, the “inhibition of FGF-2 release” value [2] was 49.9% and the “TNF-induced activation of c-Jun NH2terminal kinase” value (c-Jun NH2terminal kinase) was “inhibited”. The “inhibition of FGF-2 release” value [3] was 45.7% and the anti-cancer activities [4] was “significant anti-cancer activities”.
In the case of `C[C@@H]1O[C@@H](O[C@H]2C[C@@H](O)[C@]3(CO)[C@H]4[C@H](O)C[C@]5(C)[C@@H](C6=CC(=O)OC6)CC[C@]5(O)[C@@H]4CC[C@]3(O)C2)[C@H](O)[C@H](O)[C@H]1O` [Ouabain, reference compound], the apoptosis [1] is listed as “induce apoptosis”.
For `CO[C@@H]1C[C@H](O[C@H]2CC[C@@]3(C)[C@H](CC[C@@]45O[C@@]46CC[C@H](C4=CC(=O)OC4)[C@@]6(C)CC[C@H]35)C2)O[C@H](C)[C@@H]1O` [adynerin], the anti-cancer activities [4] is listed as “significant anti-cancer activities”.
In the case of `C[C@H]1O[C@@H](O[C@H]2[C@@H](O)C[C@H](O[C@H]3[C@@H](O)C[C@H](O[C@H]4CC[C@@]5(C)[C@H](CC[C@@H]6[C@@H]5CC[C@]5(C)[C@@H](C7=CC(=O)OC7)CC[C@]65O)C4)O[C@@H]3C)O[C@@H]2C)C[C@H](O)[C@@H]1O` [digitoxin], the apoptosis-inducing effect ([5]; in vitro, digitoxin vs digoxin) is given as “more potent for digitoxin than for digoxin” and the growth and apoptosis [5] is given as “inhibits growth and induce apoptosis”.
In the case of `C[C@H]1O[C@@H](O[C@H]2[C@@H](O)C[C@H](O[C@H]3[C@@H](O)C[C@H](O[C@H]4CC[C@@]5(C)[C@H](CC[C@@H]6[C@@H]5C[C@@H](O)[C@]5(C)[C@@H](C7=CC(=O)OC7)CC[C@]65O)C4)O[C@@H]3C)O[C@@H]2C)C[C@H](O)[C@@H]1O` [digoxin, reference compound], the growth and apoptosis [5] is given as “inhibits growth and induce apoptosis” and the apoptosis [1] is given as “induce apoptosis”.
For `C[C@H]1[C@H](C)CC[C@]2(C(=O)O)CC[C@]3(C)C(=CC[C@@H]4[C@@]5(C)CC[C@H](O)C(C)(C)[C@@H]5CC[C@]43C)[C@H]12` [ursolic acid], the anti-cancer activities [4] is given as “significant anti-cancer activities”.
